Data reported in US5571524A, “Agent for curing ischemic myocardial disease” (Unitika Ltd., priority 1994, dated 1996).

Columns and labels:
Mongrel dogs [1] = assay: Lactate extraction ratio and pH of venous blood during ischemia; assay type: in vivo; conditions: ischemia (1/3 blood flow), N = 2
Description: (§1) Mongrel dogs weighing 18-22 kg were anesthetized with pentobarbital sodium (30 mg/kg). The trachea was intubated, and the dog was ventilated with room air with oxygen. The chest was opened through the left fifth intercostal space, and the heart was suspended in a pericardial cradle. The left anterior descending coronary artery was cannulated and perfused with blood via the carotid artery through an extracorporeal bypass tube after heparinization (500 units/kg). Coronary blood flow (CBF) was measured with an electromagnetic flow probe attached to the bypass tube, and coronary perfusion pressure (CPP) was monitored at the tip of the coronary arterial cannula. A small, short collecting tube was cannulated into a small coronary vein near the center of the perfused area to sample coronary venous blood. The drained venous blood was collected in a reservoir placed at the level of the left atrium. A high fidelity of left ventricular pressure and its first derivative were measured by a micromanometer (model P-5, Konigsberg Instruments, Inc., Pasadena, Calif.) placed in the left ventricular cavity through the apex. A pair of ultrasonic crystals was placed in the center of the perfused area about 1 cm apart to measure myocardial segment length with an ultrasonic dimension gauge (5 MHz, Schuessler, Cardiff by the Sea, Calif.). End-diastolic length (EDL) was determined at the R wave of the electrocardiogram, and end-systolic length (ESL) was determined at the minimal dP/dt. Fractional shortening was calculated by (EDL-ESL)/EDL as an index of myocardial contractility of the perfused area.
Namely, the lactate extraction ratio was obtained by coronary arteriovenous difference in lactate concentration multiplied by 100 and divided by arterial lactate concentration.
(§2) After stabilization, CPP was decreased with partial occlusion of the bypass tube to the left anterior descending coronary artery such that CBF decreased to one third of the control flow. The low CPP was maintained during this test.
(§3) Blood sampling from coronary veins and coronary arteries was conducted. Then the intracoronary administration of Ap4A was stopped. The lowered coronary perfusion pressure was further maintained for 10 minutes.
(§4) The above test was repeated by replacing Ap4A with adenosine with the dosage thereof being changed to 4, 8 and 16 μg/kg/min.
As mentioned previously, in the above-mentioned experimental systems, lactate extraction ratio and pH of venous blood were measured at the time of the intracoronary administration of Ap4A and also at the time of the intracoronary administration of adenosine.

[2] = cited from earlier work
coronary vessels = conditions: at normal time; cited from earlier work
Mongrel dogs [3] = assay: Coronary blood flow increase effect, nonischemic condition; assay type: in vivo; conditions: for Coronary blood flow: N = 1 - 2; for coronary blood flow increase: nonischemic
Description: as §1
After stabilization, a physiological saline solution […], with the dosage thereof increased to 0.5, 1, 2, 4 and 8 μg/kg/min, and the changes in coronary blood flow were measured in order to assess the coronary blood flow increase effect of Ap4A.
8-sulfophenyltheophylline (hereinafter referred to as 8-SPT) serving as adenosine P1 receptor antagonist with a dose of 25 μg/kg/min was tested.
The above test was also repeated by replacing 8-SPT with N^G -nitro-L-arginine methyl ester (hereinafter referred to as L-NAME) serving as an endothelial-cell-induced nitric oxide (NO) synthesis inhibitor with a dose of 3 μg/kg/min(ic).
The above test was then repeated using 8-SPT and L-NAME in combination.

human platelet = conditions: Leuthje and Ogiluie 1984; cited from earlier work
[4] = Japanese Laid-Open Patent Application 5-286861; cited from earlier work
Mongrel dogs [5] = assay: Amelioration of myocardial ischemia: coronary blood flow, fractional shortening and perfusion pressure during factitious 1/3 blood flow; assay type: in vivo; conditions: for Myocardial fractional shortening / Coronary blood flow / Coronary perfusion pressure: ischemia (1/3 blood flow), N = 2
Description: as §1, §2, §3, §4

[6] = Japanese Laid-Open Patent Application 3-167126; cited from earlier work
Mongrel dogs [7] = assay: Myocardial oxygen consumption (MVO2), nonischemic condition; assay type: in vivo; conditions: for Myocardial oxygen consumption: control 9.1
Description: as §1
After stabilization, a physiological saline solution prepared by dissolving Ap4A.4Na in physiological saline was continuously infused into the coronary artery, with the dosage thereof increased to 0.5, 1, 2, 4 and 8 μg/kg/min, and the changes in coronary blood flow were measured in order to assess the coronary blood flow increase effect of Ap4A.
Changes in myocardial oxygen consumption (MVO2) (ml/100 g/min) caused by the administration of Ap4A were measured as shown in TABLE 2.

[8] = tested on: rabbit mesenteric arteries; conditions: R. Busse et al. 1988; cited from earlier work

Nc1ncnc2c1ncn2[C@@H]1O[C@H](COP(=O)(O)OP(=O)(O)OP(=O)(O)OP(=O)(O)OC[C@H]2O[C@@H](n3cnc4c(N)ncnc43)[C@H](O)[C@@H]2O)[C@@H](O)[C@H]1O [Ap4A, Diadenosine 5',5"'-p^1, p^4 -tetraphosphate]
pH of venous blood (Mongrel dogs [1]; Ap4A 4 μg/kg/min intracoronary, control 7.39, 1/3 control 7.23): 7.29 | Lactate extraction ratio (Mongrel dogs [1]; Ap4A 4 μg/kg/min intracoronary, control 28.3, 1/3 control -39.8): -15.8% | pH of venous blood (Mongrel dogs [1]; Ap4A administration stopped, 1/3 control 7.23): 7.19 | Lactate extraction ratio (Mongrel dogs [1]; Ap4A administration stopped, 1/3 control -39.8): -48.6% | degradation in vivo [2]: degraded in vivo to ATP and AMP, which are eventually degraded to adenosine | vasodilating effect on coronary vessels (coronary vessels): vasodilating effect on coronary vessels at normal time | coronary blood flow increase effect of Ap4A in presence of 8-SPT (Mongrel dogs [3]; 8-SPT 25 μg/kg/min): partially inhibited | coronary blood flow increase effect of Ap4A in presence of 8-SPT and L-NAME (Mongrel dogs [3]; 8-SPT and L-NAME in combination): not completely inhibited | coronary blood flow increase effect of Ap4A in presence of L-NAME (Mongrel dogs [3]; L-NAME 3 μg/kg/min (ic)): only slightly inhibited | Coronary blood flow (Mongrel dogs [3]; Untreated (no inhibitor), Ap4A 0.5 μg/kg/min intracoronary, control 93.7): 104.1 ml/100 g/min | Coronary blood flow (Mongrel dogs [3]; Untreated (no inhibitor), Ap4A 1 μg/kg/min intracoronary, control 93.7): 122.2 ml/100 g/min | Coronary blood flow (Mongrel dogs [3]; Untreated (no inhibitor), Ap4A 2 μg/kg/min intracoronary, control 93.7): 137.6 ml/100 g/min | Coronary blood flow (Mongrel dogs [3]; Untreated (no inhibitor), Ap4A 4 μg/kg/min intracoronary, control 93.7): 158.9 ml/100 g/min | Coronary blood flow (Mongrel dogs [3]; Untreated (no inhibitor), Ap4A 8 μg/kg/min intracoronary, control 93.7): 202.2 ml/100 g/min | coronary blood flow increase (Mongrel dogs [3]; intracoronary 0.5 to 8 μg/kg/min): significantly increasing the coronary blood flow dose-dependently | coronary blood flow increase (Mongrel dogs [3]; intravenous administration): This effect was also observed | Coronary blood flow (Mongrel dogs [3]; with 8-SPT 25 μg/kg/min, Ap4A 0.5 μg/kg/min, control 97.0): 98.6 ml/100 g/min | Coronary blood flow (Mongrel dogs [3]; with 8-SPT 25 μg/kg/min, Ap4A 1 μg/kg/min, control 97.0): 96.8 ml/100 g/min | Coronary blood flow (Mongrel dogs [3]; with 8-SPT 25 μg/kg/min, Ap4A 2 μg/kg/min, control 97.0): 106.1 ml/100 g/min | Coronary blood flow (Mongrel dogs [3]; with 8-SPT 25 μg/kg/min, Ap4A 4 μg/kg/min, control 97.0): 117.0 ml/100 g/min | Coronary blood flow (Mongrel dogs [3]; with 8-SPT 25 μg/kg/min, Ap4A 8 μg/kg/min, control 97.0): 124.5 ml/100 g/min | Coronary blood flow (Mongrel dogs [3]; with 8-SPT + L-NAME, Ap4A 0.5 μg/kg/min, control 97.1): 97.1 ml/100 g/min | Coronary blood flow (Mongrel dogs [3]; with 8-SPT + L-NAME, Ap4A 1 μg/kg/min, control 97.1): 108.6 ml/100 g/min | Coronary blood flow (Mongrel dogs [3]; with 8-SPT + L-NAME, Ap4A 2 μg/kg/min, control 97.1): 102.9 ml/100 g/min | Coronary blood flow (Mongrel dogs [3]; with 8-SPT + L-NAME, Ap4A 4 μg/kg/min, control 97.1): 114.3 ml/100 g/min | Coronary blood flow (Mongrel dogs [3]; with 8-SPT + L-NAME, Ap4A 8 μg/kg/min, control 97.1): 120.0 ml/100 g/min | Coronary blood flow (Mongrel dogs [3]; with L-NAME 3 μg/kg/min (ic), Ap4A 0.5 μg/kg/min, control 90.3): 100.0 ml/100 g/min | Coronary blood flow (Mongrel dogs [3]; with L-NAME 3 μg/kg/min (ic), Ap4A 1 μg/kg/min, control 90.3): 119.4 ml/100 g/min | Coronary blood flow (Mongrel dogs [3]; with L-NAME 3 μg/kg/min (ic), Ap4A 2 μg/kg/min, control 90.3): 122.6 ml/100 g/min | Coronary blood flow (Mongrel dogs [3]; with L-NAME 3 μg/kg/min (ic), Ap4A 4 μg/kg/min, control 90.3): 151.6 ml/100 g/min | Coronary blood flow (Mongrel dogs [3]; with L-NAME 3 μg/kg/min (ic), Ap4A 8 μg/kg/min, control 90.3): 219.4 ml/100 g/min | ADP-induced human platelet aggregation inhibitory effect (human platelet): ADP-induced human platelet aggregation inhibitory effect | deliberated hypotensive effect [4]: deliberated hypotensive effect | Myocardial fractional shortening (Mongrel dogs [5]; Ap4A 4 μg/kg/min intracoronary 10 minutes, control 24.7, 1/3 control 4.9): 11.5% | Coronary blood flow (Mongrel dogs [5]; Ap4A 4 μg/kg/min intracoronary 10 minutes, control 90.5, 1/3 control 30.4): 48.2 ml/100 g/min | Coronary perfusion pressure (Mongrel dogs [5]; Ap4A 4 μg/kg/min intracoronary 10 minutes, control 104, 1/3 control 54): 54 mmHg | Myocardial fractional shortening (Mongrel dogs [5]; Ap4A administration stopped, 1/3 control 4.9): 4.8% | Coronary blood flow (Mongrel dogs [5]; Ap4A administration stopped, 1/3 control 30.4): 31.9 ml/100 g/min | Coronary perfusion pressure (Mongrel dogs [5]; Ap4A administration stopped, 1/3 control 54): 54 mmHg | prevention of decrease in myocardial fractional shortening (Mongrel dogs [5]; ischemia, Ap4A 4 μg/kg/min): significantly preventing a decrease in myocardial fractional shortening | amelioration effect on myocardial ischemia (Mongrel dogs [5]; mongrel dogs in a state of excessive ischemia): noticeable amelioration effect on myocardial ischemia | anti-arrhythmia effect [6]: anti-arrhythmia effect | Myocardial oxygen consumption (Mongrel dogs [7]; Ap4A 0.5 μg/kg/min): 9.9 ml/100 g/min | Myocardial oxygen consumption (Mongrel dogs [7]; Ap4A 1 μg/kg/min): 9.0 ml/100 g/min | Myocardial oxygen consumption (Mongrel dogs [7]; Ap4A 2 μg/kg/min): 8.7 ml/100 g/min | Myocardial oxygen consumption (Mongrel dogs [7]; Ap4A 4 μg/kg/min): 8.7 ml/100 g/min | Myocardial oxygen consumption (Mongrel dogs [7]; Ap4A 8 μg/kg/min): 9.5 ml/100 g/min | myocardial oxygen consumption (MVO2) change (Mongrel dogs [7]; Ap4A 0.5 to 8 μg/kg/min): neither largely increased nor decreased | vasodilating effect on rabbit mesenteric arteries [8]: vasodilating effect on rabbit mesenteric arteries
